Data published in publication PMC10544575, “Inhibitory mechanism of vortioxetine on CYP450 enzymes in human and rat liver microsomes” (Frontiers in Pharmacology, 2023).
Where two headings read alike, the source gives them in different places.

What was measured:
CYP2C-3 = assay: IC50 of vortioxetine on CYP2C-3 (mephenytoin) in RLMs; type: in vitro ADME; settings: rat, rat liver microsomes, probe mephenytoin
Procedure: (§1) The components of the incubation system were as follows: 0.20 mg/mL HLMs or 0.20 mg/mL RLMs, 0.1 M Tris-HCl, vortioxetine, and the probe substrates of each enzyme. In the study of Km’s (Michaelis–Menten constant) experiment, midazolam (1, 2, 5, 10, 20, 50 and 100 μM in HLMs and RLMs) corresponded to CYP3A4/3A; bupropion (10, 20, 50, 100, 200, 500, 1,000 and 2000 μM in HLMs; 1, 2, 5, 10, 20, 50, 100 and 200 μM in RLMs) corresponded to CYP2B6/2B; amodiaquine (5, 10, 20, 50, 100 and 200 μM in HLMs; 10, 20, 50, 100, 200, 500 μM in RLMs) corresponded to CYP2C8/CYP2C-1; losartan (1, 2, 5, 10, 20, 50, 100, 200 μM in HLMs; 10, 20, 50, 100, 200, 500 and 1,000 μM in RLMs) corresponded to CYP2C9/CYP2C-2; mephenytoin (20, 50, 100, 200, 500 and 1,000 μM in HLMs; 5, 10, 20, 50, 100, 200, 500 and 1,000 μM in RLMs) corresponded to CYP2C19/CYP2C-3; and dextromethorphan (1, 2, 5, 10, 20, 50 and 100 μM in HLMs and RLMs) corresponded to CYP2D6/CYP2D. […]
(§2) All experiments results were detected by UPLC-MS/MS, which equipped with a Waters Acquity UPLC system (Milford, MA, United States) and a Waters Xevo TQ-S triple quadrupole tandem mass spectrometer with an electrospray ionization source (Milford, MA, United States). […]
(§3) IC50 values and enzyme kinetic parameters were calculated by Graphpad Prism 6.0 (GraphPad software Inc., CA, United States). […] Data for each experiment were expressed as mean ± SD (n = 3).

CYP3A = assay: Reversible inhibition kinetics (Lineweaver-Burk), CYP3A in RLMs; type: in vitro ADME, rat
Procedure: as §1, §2, §3

CYP2B = assay: Reversible inhibition kinetics (Lineweaver-Burk), CYP2B in RLMs; type: in vitro ADME, rat
Procedure: as §1, §2, §3

CYP2D6 = CYP2D6 (Homo sapiens, UniProt P10635); assay: IC50-shift experiment, CYP2D6 in HLMs; type: in vitro ADME; design: 0.20 mg/mL HLMs or 0.20 mg/mL RLMs; from tissue; host or cells: human liver microsomes; settings: for IC50: dextromethorphan 10 μM
Sequence of CYP2D6 (P10635 whole entry): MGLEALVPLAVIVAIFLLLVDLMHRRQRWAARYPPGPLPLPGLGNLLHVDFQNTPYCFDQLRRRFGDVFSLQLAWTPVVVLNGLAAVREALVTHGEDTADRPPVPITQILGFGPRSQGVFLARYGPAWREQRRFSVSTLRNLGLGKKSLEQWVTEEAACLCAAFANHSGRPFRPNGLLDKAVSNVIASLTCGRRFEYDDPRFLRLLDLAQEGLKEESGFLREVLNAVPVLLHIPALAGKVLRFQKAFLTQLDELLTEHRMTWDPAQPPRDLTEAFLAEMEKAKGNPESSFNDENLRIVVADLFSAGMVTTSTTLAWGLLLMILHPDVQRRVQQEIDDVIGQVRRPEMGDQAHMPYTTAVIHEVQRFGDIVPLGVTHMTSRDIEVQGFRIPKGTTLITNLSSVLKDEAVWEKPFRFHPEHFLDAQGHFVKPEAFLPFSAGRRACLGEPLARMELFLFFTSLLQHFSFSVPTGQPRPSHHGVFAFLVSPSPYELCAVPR
Procedure: as §1, with “CYP2D6/CYP2D. After 5.0 min of preincubation in the shaking water bath, the reaction was started with the addition of 1.0 mM NADPH. The incubated temperature at 37°C for 30 min. After the incubation, the enzyme reaction was stopped by cooling at −80°C, and 200 μL of acetonitrile and 20 μL of internal standard diazepam (200 ng/mL) were added for protein precipitation.” for “CYP2D6/CYP2D.”
IC50-shift was used to investigate whether the drug produced time-dependent inhibition (TDI) of the enzyme. […] During the experiment, the individual substrates midazolam (4 μM), bupropion (40 μM), amodiaquine (3 μM), losartan (8 μM), mephenytoin (90 μM), and dextromethorphan (10 μM) were determined with vortioxetine IC50-shift in HLMs. […]
as §2, §3

IC50 at 30 min (CYP2C-3; RLMs 0.20 mg/mL, mephenytoin at Km, 37°C, 30 min, read-out: IC50): 20.3 µM | IC50 at 30 min (CYP2C-3; inhibitory effect (strength judged by IC50), RLMs): > 10 µM | Inhibition type (CYP3A; midazolam, Lineweaver-Burk plot): uncompetitive inhibition | Ki at 30 min (CYP3A; rat, rat liver microsomes, probe midazolam): 4.41 µM | Inhibition type (CYP2B; bupropion, Lineweaver-Burk plot): competitive inhibition | Ki at 30 min (CYP2B; rat, rat liver microsomes, probe bupropion): 2.87 µM | IC50 (CYP2D6; 30 min preincubation with 1.0 mM NADPH): 18.4 µM | IC50 (CYP2D6; 30 min preincubation without NADPH): 19.4 µM
Compound: Cc1ccc(Sc2ccccc2N2CCNCC2)c(C)c1 [vortioxetine]
IC50 shift at 30 min (CYP2D6; human, human liver microsomes, probe dextromethorphan (10 μM), ratio IC50 (−) NADPH to IC50 (+) NADPH, read-out: IC50 fold shift): 1.06
